Measured values reported in PubChem BioAssay (NCI).
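1) Cells in 96-well plates. 2) Compound, 48 h, 5 concentrations. 3) Linear interpolation between surrounding doses. 4) Unreached endpoint = highest concentration. TGI: total growth inhibition.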

Experiments:
Test in all cases: growth of human tumour cells (NCI), 48 h
SR leukemia = test system: SR leukemia
SF-268 CNS = test system: SF-268 CNS
SNB-19 CNS = test system: SNB-19 CNS
MOLT-4 leukemia = test system: MOLT-4 leukemia
COLO 205 colon = test system: COLO 205 colon
CCRF-CEM leukemia = test system: CCRF-CEM leukemia
EKVX NSCLC = test system: EKVX NSCLC
SK-MEL-28 melanoma = test system: SK-MEL-28 melanoma
MCF7 breast = test system: MCF7 breast
SK-MEL-5 melanoma = test system: SK-MEL-5 melanoma
HL-60(TB) leukemia = test system: HL-60(TB) leukemia
ACHN renal = test system: ACHN renal
T-47D breast = test system: T-47D breast
A549 NSCLC = test system: A549 NSCLC
M14 melanoma = test system: M14 melanoma
SN12C renal = test system: SN12C renal
NCI/ADR-RES ovarian = test system: NCI/ADR-RES ovarian
KM12 colon = test system: KM12 colon
RPMI-8226 leukemia = test system: RPMI-8226 leukemia
NCI-H23 lung = test system: NCI-H23 lung
OVCAR-3 ovarian = test system: OVCAR-3 ovarian
A498 renal = test system: A498 renal
SF-539 CNS = test system: SF-539 CNS
BT-549 breast = test system: BT-549 breast
OVCAR-8 ovarian = test system: OVCAR-8 ovarian
DU-145 prostate = test system: DU-145 prostate
UACC-257 melanoma = test system: UACC-257 melanoma
HCT-15 colon = test system: HCT-15 colon
SK-OV-3 ovarian = test system: SK-OV-3 ovarian
HOP-62 NSCLC = test system: HOP-62 NSCLC
MDA-N = test system: MDA-N
HS 578T breast = test system: HS 578T breast
UO-31 renal = test system: UO-31 renal
OVCAR-5 ovarian = test system: OVCAR-5 ovarian
OVCAR-4 ovarian = test system: OVCAR-4 ovarian
MDA-MB-435 = test system: MDA-MB-435
NCI-H460 lung = test system: NCI-H460 lung
CAKI-1 renal = test system: CAKI-1 renal
MDA-MB-231 breast = test system: MDA-MB-231 breast
NCI-H226 lung = test system: NCI-H226 lung
PC-3 prostate = test system: PC-3 prostate
HCT-116 colon = test system: HCT-116 colon
SK-MEL-2 melanoma = test system: SK-MEL-2 melanoma
SW-620 colon = test system: SW-620 colon
SNB-75 CNS = test system: SNB-75 CNS
U251 CNS = test system: U251 CNS
HCC-2998 colon = test system: HCC-2998 colon
NCI-H522 lung = test system: NCI-H522 lung
UACC-62 melanoma = test system: UACC-62 melanoma
LOX IMVI melanoma = test system: LOX IMVI melanoma
SF-295 CNS = test system: SF-295 CNS
786-0 renal = test system: 786-0 renal
TK-10 renal = test system: TK-10 renal
IGROV1 ovarian = test system: IGROV1 ovarian
HT29 colon = test system: HT29 colon
RXF 393 renal = test system: RXF 393 renal
HOP-92 NSCLC = test system: HOP-92 NSCLC
MALME-3M melanoma = test system: MALME-3M melanoma
K-562 leukemia = test system: K-562 leukemia

Compound: CC1=CC[C@@H]2[C@@H](CC[C@@]2(C)O)C(C)(C)[C@H]1CC[C@@H]1[C@@]2(C)CCC(=O)C(C)(C)O[C@@H]2CC[C@]1(C)O
- TGI (SR leukemia): 59.4 µM
- TGI (SF-268 CNS): > 100 µM
- TGI (SNB-19 CNS): > 100 µM
- TGI (MOLT-4 leukemia): 68.5 µM
- TGI (COLO 205 colon): 55.8 µM
- TGI (CCRF-CEM leukemia): 48 µM
- TGI (EKVX NSCLC): > 100 µM
- TGI (SK-MEL-28 melanoma): > 100 µM
- TGI (MCF7 breast): > 100 µM
- TGI (SK-MEL-5 melanoma): 39.1 µM
- TGI (HL-60(TB) leukemia): 35 µM
- TGI (ACHN renal): 42.4 µM
- TGI (T-47D breast): > 100 µM
- TGI (A549 NSCLC): > 100 µM
- TGI (M14 melanoma): 59.3 µM
- TGI (SN12C renal): 42.3 µM
- TGI (NCI/ADR-RES ovarian): 60.9 µM
- TGI (KM12 colon): 29.6 µM
- TGI (RPMI-8226 leukemia): 51.1 µM
- TGI (NCI-H23 lung): > 100 µM
- TGI (OVCAR-3 ovarian): > 100 µM
- TGI (A498 renal): 73 µM
- TGI (SF-539 CNS): 36.5 µM
- TGI (BT-549 breast): 57.8 µM
- TGI (OVCAR-8 ovarian): 62.1 µM
- TGI (DU-145 prostate): > 100 µM
- TGI (UACC-257 melanoma): > 100 µM
- TGI (HCT-15 colon): 34.3 µM
- TGI (SK-OV-3 ovarian): > 100 µM
- TGI (HOP-62 NSCLC): > 100 µM
- TGI (MDA-N): 57 µM
- TGI (HS 578T breast): 77 µM
- TGI (UO-31 renal): 49 µM
- TGI (OVCAR-5 ovarian): > 100 µM
- TGI (OVCAR-4 ovarian): > 100 µM
- TGI (MDA-MB-435): > 100 µM
- TGI (NCI-H460 lung): 35.8 µM
- TGI (CAKI-1 renal): 96.6 µM
- TGI (MDA-MB-231 breast): > 100 µM
- TGI (NCI-H226 lung): 63.5 µM
- TGI (PC-3 prostate): > 100 µM
- TGI (HCT-116 colon): 42 µM
- TGI (SK-MEL-2 melanoma): > 100 µM
- TGI (SW-620 colon): > 100 µM
- TGI (SNB-75 CNS): > 100 µM
- TGI (U251 CNS): > 100 µM
- TGI (HCC-2998 colon): 40.9 µM
- TGI (NCI-H522 lung): 38.9 µM
- TGI (UACC-62 melanoma): 34.9 µM
- TGI (LOX IMVI melanoma): 33.3 µM
- TGI (SF-295 CNS): 48.9 µM
- TGI (786-0 renal): 59.6 µM
- TGI (TK-10 renal): > 100 µM
- TGI (IGROV1 ovarian): 76.5 µM

Compound: CO/C(=N\N=C(/C)C(F)(F)F)c1ccncc1
- TGI (SR leukemia): > 100 µM
- TGI (SNB-19 CNS): > 100 µM
- TGI (MOLT-4 leukemia): > 100 µM
- TGI (COLO 205 colon): > 100 µM
- TGI (CCRF-CEM leukemia): > 100 µM
- TGI (SK-MEL-28 melanoma): > 100 µM
- TGI (MCF7 breast): > 100 µM
- TGI (SK-MEL-5 melanoma): > 100 µM
- TGI (HT29 colon): > 100 µM
- TGI (HL-60(TB) leukemia): > 100 µM
- TGI (T-47D breast): > 100 µM
- TGI (M14 melanoma): > 100 µM
- TGI (SN12C renal): > 100 µM
- TGI (NCI/ADR-RES ovarian): > 100 µM
- TGI (KM12 colon): > 100 µM
- TGI (RPMI-8226 leukemia): > 100 µM
- TGI (NCI-H23 lung): > 100 µM
- TGI (OVCAR-3 ovarian): > 100 µM
- TGI (A498 renal): > 100 µM
- TGI (RXF 393 renal): > 100 µM
- TGI (BT-549 breast): > 100 µM
- TGI (OVCAR-8 ovarian): > 100 µM
- TGI (DU-145 prostate): > 100 µM
- TGI (HCT-15 colon): > 100 µM
- TGI (SK-OV-3 ovarian): > 100 µM
- TGI (HOP-62 NSCLC): > 100 µM
- TGI (MDA-N): > 100 µM
- TGI (HS 578T breast): > 100 µM
- TGI (UO-31 renal): > 100 µM
- TGI (OVCAR-5 ovarian): > 100 µM
- TGI (OVCAR-4 ovarian): > 100 µM
- TGI (MDA-MB-435): > 100 µM
- TGI (NCI-H460 lung): > 100 µM
- TGI (CAKI-1 renal): > 100 µM
- TGI (MDA-MB-231 breast): > 100 µM
- TGI (NCI-H226 lung): > 100 µM
- TGI (PC-3 prostate): > 100 µM
- TGI (HOP-92 NSCLC): > 100 µM
- TGI (HCT-116 colon): > 100 µM
- TGI (SK-MEL-2 melanoma): > 100 µM
- TGI (MALME-3M melanoma): > 100 µM
- TGI (SNB-75 CNS): > 100 µM
- TGI (U251 CNS): > 100 µM
- TGI (NCI-H522 lung): > 100 µM
- TGI (UACC-62 melanoma): > 100 µM
- TGI (K-562 leukemia): > 100 µM
- TGI (IGROV1 ovarian): > 100 µM
